Patent publication US9408890B2, “Multivalent liposome formulations” (priority 2013, dated 2016)

Tests used:
Format in all cases: cell-based, influenza A virus
[1] = system: influenza A/Puerto Rico/8/34 (PR/8, H1N1)
[2] = system: Influenza A/Philippines X-79 (H3N2); conditions: 74,000 nM monovalent LSTc; data not shown
[3] = system: influenza A/Puerto Rico/8/34 (PR/8, H1N1); set-up: inhibition of hemagglutination: dose or concentration left out as unconfirmed

Substance: sialylneolacto-N-tetraose c [Monovalent LSTc]
- inhibition of PR/8 infection of MDCK cells (FIG. 3A) [1]: did not significantly inhibited infection at high concentrations
- inhibition of infectivity of PR/8 ([1]; 74,000 nM monovalent LSTc): did not inhibit the infectivity
- inhibition of infectivity of Philippines [2]: did not inhibit the infectivity
- inhibition of hemagglutination [3]: did not inhibit hemagglutination
- HAI Titer ([3]; four HA units of virus, human RBCs, reciprocal of last liposome dilution giving non-agglutinated RBCs): No inhibition
